Reference: EP3685668B1, “COMPOSITION COMPRISING ACIBENZOLAR-S-METHYL AS EFFECTIVE INGREDIENT FOR CONTROLLING BURSAPHELENCHUS XYLOPHILUS DISEASE AND METHOD FOR CONTROLLING BURSAPHELENCHUS XYLOPHILUS USING SAME” (Industry Foundation of Chonnam National University, priority 2017, dated 2019)

How the values were obtained:
Assay in all cases: qRT-PCR expression of induced resistance gene in pine tree callus
Assay type in all cases: cell-based
Conditions in all cases: 200 µg/mℓ, 24 hours
[1] = test system: Antipeptide
Experimental: (§1) For in vitro analysis of induced resistance, the expression of PR genes and other plant defense-related genes was determined, which are evolved in various defense mechanisms including induced resistance. The primers of sixteen induced resistance-related genes of pine tree used in this invention were listed in the below and elongation factor_1 alpha were used as a reference gene. [Table 4] The primer list of defense resistance-related genes
(§2) After the treatment with 200 µg / mℓ of candidates of the selected induced resistance material, expression of the induced resistance-related gene in pine callus was determined by qRT-PCR using the primer pairs of defense resistance-related genes in Table 4. As a candidate group of an induced resistance material in pine tree, acibenzolar-S-methyl (ASM), TDL (Tiadinil), ITL (Isotianil), PBZ (Probenzole), AZO (Azoxystrobin), VMA (Validamycin A), MeJA (Methyl jasmonate), BABA (DL-3-aminobutyric acid), 2,3-BDO (2,3-Butanediol), GABA (r-Aminobutyric acid), glucan (Glucan), ER (Ergosterol), and AZA (Azelaic acid) were used. For the in vitro analysis of the expression of induced resistance gene in pine callus, the selected induced resistance materials were applied with 500 µℓ of LM liquid medium on a surface of pine tree callus (100 mg) in 12-well microplate to give final concentration of 200 µg/mℓ. Then, the callus surface was sufficiently reacted for 24 hours with the candidate of pine tree induced resistance material by shaking at 50 rpm in a 25 °C shaking incubator under dark condition. RNAs were extracted from the callus after completion of the reaction with an induced resistance material, followed by synthesis of cDNAs. Then, by carrying out qRT-PCR, the expression of induced resistance genes was determined. [Table 5] Expression of induced resistance gene in pine tree callus by TDL, PBZ, ASM, ITL, AZO, VMA, glucan, and AZA
(§3) Based on the results of assay using young plants and gene expression by selected induce resistance materials, it seemed that acibenzolar-S-methyl had the most excellent effect. Thus, the following tests were carried out using acibenzolar-S-methyl only. Expression of the induced resistance genes at different culture time after the chemical treatment was examined. For the in vitro assay, LM medium containing pine tree callus was treated with acibenzolar-S-methyl at concentration of 200 µg / mℓ, followed by reaction for 1 day, 7 days, or 14 days in a 25°C shaking incubator under dark condition. RNAs were extracted from the callus after the reaction followed by synthesis of cDNAs. Then, by carrying out qRT-PCR, the expression of the induced resistance genes was determined. Depending on reaction time after the treatment, i.e., after 1 day, 7 days, or 14 days, the expression of the obtained induced resistance genes was examined. As a result of the in vitro callus assay depending on reaction time after the treatment with acibenzolar-S-methyl, the expression of the induced resistance-related genes is the highest at 1 day after the treatment with acibenzolar-S-methyl and gradually diminished over time, as it is shown in Table 7. In this regard, it is contemplated that the expression of genes acquired by acibenzolar-S-methyl is not maintained in highly expressed state until the pathogen invasion and just memorized with at minimum level so that the energy consumption by plant can be efficiently managed. [Table 7] Expression of induced resistance gene in pine tree callus by acibenzolar-S-methyl depending on reaction time
(§4) To have an in vitro assay according to different methods of treatment with acibenzolar-S-methyl, two separate treatment methods, i.e., surface treatment (spraying treatment) of pine tree callus and direct application of the induced resistance material to an LM medium containing pine tree callus, were performed. […]

[2] = test system: Extensin
Experimental: as §1, §2, §3, §4

[3] = test system: Heat shock 70
Experimental: as §1, §2, §3, §4

[4] = test system: Hydroxyproline
Experimental: as §1, §2, §3, §4

[5] = test system: Metallothionein
Experimental: as §1, §2, §3, §4

[6] = test system: PR_10 family
Experimental: as §1, §2, §3, §4

[7] = test system: PR_1b family
Experimental: as §1, §2, §3, §4

[8] = test system: PR_2 family
Experimental: as §1, §2, §3, §4

[9] = test system: PR_3 family class 1
Experimental: as §1, §2, §3, §4

[10] = test system: PR_3 family class 4
Experimental: as §1, §2, §3, §4

[11] = test system: PR_4 family
Experimental: as §1, §2, §3, §4

[12] = test system: PR_5 family
Experimental: as §1, §2, §3, §4

[13] = test system: PR_9 family
Experimental: as §1, §2, §3, §4

[14] = test system: Xyloglucan
Experimental: as §1, §2, §3, §4

C=CCOC1=NS(=O)(=O)c2ccccc21 [PBZ, Probenzole]
Expression of induced resistance gene, Antipeptide [1]: 1.11 | Expression of induced resistance gene, Extensin [2]: 1.62 | Expression of induced resistance gene, Heat shock 70 [3]: 0.73 | Expression of induced resistance gene, Hydroxyproline [4]: 1.21 | Expression of induced resistance gene, Metallothionein [5]: 0.25 | Expression of induced resistance gene, PR_10 family [6]: 2.08 | Expression of induced resistance gene, PR_1b family [7]: 0.26 | Expression of induced resistance gene, PR_2 family [8]: 0.46 | Expression of induced resistance gene, PR_3 family class 1 [9]: 1.04 | Expression of induced resistance gene, PR_3 family class 4 [10]: 0.74 | Expression of induced resistance gene, PR_4 family [11]: 0.46 | Expression of induced resistance gene, PR_5 family [12]: 1.99 | Expression of induced resistance gene, PR_9 family [13]: 2.52 | Expression of induced resistance gene, Xyloglucan [14]: 1.41

O=C(O)CCCCCCCC(=O)O [AZA, Azelaic acid]
Expression of induced resistance gene, Antipeptide [1]: 1.43 | Expression of induced resistance gene, Extensin [2]: 1.15 | Expression of induced resistance gene, Heat shock 70 [3]: 1.42 | Expression of induced resistance gene, Hydroxyproline [4]: 0.9 | Expression of induced resistance gene, Metallothionein [5]: 1.97 | Expression of induced resistance gene, PR_10 family [6]: 1.16 | Expression of induced resistance gene, PR_1b family [7]: 1.15 | Expression of induced resistance gene, PR_2 family [8]: 1.02 | Expression of induced resistance gene, PR_3 family class 1 [9]: 1.12 | Expression of induced resistance gene, PR_3 family class 4 [10]: 1.16 | Expression of induced resistance gene, PR_4 family [11]: 0.99 | Expression of induced resistance gene, PR_5 family [12]: 1.45 | Expression of induced resistance gene, PR_9 family [13]: 1.27 | Expression of induced resistance gene, Xyloglucan [14]: 0.76
